Measured values published in patent US7750019B2, “Pyrimidine compound having benzyl(pyridylmethyl)amine structure and medicament comprising the same” (Kowa Company, Ltd., priority 2006, dated 2010).
Where a name gives a salt, the structure may show the parent alone.

Legend:
[1] = tested on: CETP; assay: CETP inhibitory activity in blood of hamster (single oral administration); assay type: in vivo; conditions: 30 mg/kg single oral dose in olive oil, blood collected 2 hours after administration, n=3, control 33.7 ± 2.3
Procedure: 1: Labeling of Donor Lipoprotein (HDL3 Fraction) with ^3H-Cholesterol and Preparation of Acceptor Lipoprotein (LDL Fraction)
The donor lipoprotein was prepared by adding KBr to plasma of healthy human subject (50 mL) to adjust the specific gravity (d) of the plasma to be 1.125, centrifuging the mixture at 100,000 rpm and 4° C. for 2.5 hours (Optima Max-E TLA-100.2 rotor, Beckman), and collecting the lower layer (HDL3 fraction, d>1.125). The resulting fraction was dialyzed against PBS (10 mM Na2HPO4, 10 mM NaH2PO4, 0.15 M NaCl, 1 mM EDTA-2Na, pH 7.4). Then, a 95% ethanol solution of 9.25 MBq 1, 2-3H(N)cholesterol (NEN™, Life Science Products, USA) was added to the sample with stirring, and the mixture was incubated at 37° C. for 18 hours. After the incubation, the mixture was added with KBr to adjust the specific gravity thereof to be 1.210, and centrifuged under the same conditions as mentioned above to obtain the upper layer (^3H-labeled HDL3 fraction, 1.125<d<1.210). The ^3H-labeled HDL3 was dialyzed against PBS, and used for the measurement of the CETP activity.
The acceptor lipoprotein was prepared as follows. Plasma of healthy human subject (30 mL) was centrifuged under the same conditions as mentioned above, and the upper layer (chylomicron and VLDL fraction, d<1.006) was removed. The lower layer was added with KBr to adjust the specific gravity thereof to be 1.063, and centrifuged under the same conditions to obtain the upper layer (LDL fraction, 1.006<d<1.063). The LDL fraction was dialyzed against PBS and used for the measurement of the CETP activity.
Each of the compounds of Examples 10 and 13 and the comparative compounds was dissolved in olive oil and orally administered once to the animals, and blood was collected from the abdominal portion of vena cava under pentobarbital anesthetization 2 hours after the administration. Further, as a control, olive oil in which any compound was not dissolved was administered, and blood was collected in a similar manner (n=3 for each).
(§1) To 10 μL of the hamster plasma, 5 μL of ^3H-labeled HDL3 and 20 μL of LDL were added, and the final volume of the mixture was made […] with a TBS solution (10 mM Tris, 0.15 M NaCl, pH 7.4). The mixture was incubated at 37° C. for 18 hours, then added with 400 μL of the TBS solution containing 0.15 M MgCl2 and 0.3% dextran sulfate, stirred (10 sec×2) with VORTEX-2 (Scientific Industries Inc.), left for 30 minutes on ice, and centrifuged at 4° C. and 8,000 rpm for 10 minutes (MX-301, TOMY). The resulting centrifugation supernatant (^3H-labeled HDL3 fraction) in a volume of 300 μL was collected in a vial, and added with 3.6 mL of a scintillator (Aquazol-2, Packard), and the mixture was stirred. Then, radioactivity of ^3H was measured with a liquid scintillation counter (TRI-CARB 2700 TR, Packard). The CETP activity (%) was obtained in accordance with the following equation 2. CETP activity (%)=(Blank dpm−Sample dpm)×100/(Blank dpm) (Equation 2) In the equation, the terms have the following meanings: Blank dpm: Value of ^3H radioactivity of sample not added with plasma Sample dpm: Value of ^3H radioactivity of sample added with compound or control sample.

[2] = biological target: T1, CETP (Homo sapiens, UniProt P11597); assay: CETP inhibitory action in human plasma (Roar Biomedical CETP Activity kit, fluorescence); assay type: biochemical; conditions: human plasma incubated with compound at 37° C. for 4 hours; read-out: IC50 (concentration inhibiting the CETP activity by 50%)
T1 construct: The CETP activity in this plasma was measured with Cholesteryl Ester Transfer Protein Activity kit; from tissue; host or cells: human plasma
T1 sequence (P11597 18-493): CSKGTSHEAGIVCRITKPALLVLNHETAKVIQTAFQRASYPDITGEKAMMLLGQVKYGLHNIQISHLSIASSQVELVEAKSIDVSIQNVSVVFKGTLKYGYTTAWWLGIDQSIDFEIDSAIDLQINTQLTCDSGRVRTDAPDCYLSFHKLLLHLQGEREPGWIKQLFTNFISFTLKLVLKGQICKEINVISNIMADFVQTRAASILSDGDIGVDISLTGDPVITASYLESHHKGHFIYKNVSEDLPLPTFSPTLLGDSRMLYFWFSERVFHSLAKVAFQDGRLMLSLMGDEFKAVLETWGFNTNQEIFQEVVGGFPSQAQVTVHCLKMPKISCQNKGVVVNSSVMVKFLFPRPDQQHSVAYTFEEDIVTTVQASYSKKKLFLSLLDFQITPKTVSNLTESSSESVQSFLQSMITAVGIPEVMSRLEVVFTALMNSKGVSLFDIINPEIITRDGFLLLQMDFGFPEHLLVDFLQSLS
Procedure: A solution obtained by dissolving an exemplary compound or a comparative compound in polyethyleneglycol/N-methyl-2-pyrrolidone (vol/vol=1/1) was added to human plasma, and the mixture was incubated in an incubator at 37° C. for 4 hours. The CETP activity in this plasma was measured with Cholesteryl Ester Transfer Protein Activity kit (Roar Biomedical, catalog No.: RB-CETP). Specifically, to each well of a 96-well plate, 95 μL of a buffer (10 mM Tris, 150 mM NaCl, 2 mM EDTA, pH 7.4), 2 μL of Donor particle and 2 μL of Acceptor particle were added, 1 μL of the human plasma after the incubation was added to the mixture, and the mixture was incubated in an incubator at 37° C. for 2 hours. After completion of the incubation, fluorescence intensity (FLU) was measured with a fluorescence plate reader (excitation wavelength: 465 nm, emission wavelength: 535 nm). In accordance with the following equation 1, the CETP activity (% of control) was obtained for the compounds of the examples and the comparative compounds for two or more concentrations. CETP activity (% of control)=(Sample FLU−Blank FLU)×100/(Control FLU−Blank FLU) (Equation 1) In the equation, the terms have the following meanings: Blank: No addition of plasma Control: Plasma not added with solution of compound Sample: Plasma added with solution of compound
A value obtained by subtracting the value of the CETP activity from 100 was defined as the CETP inhibitory rate of each exemplary compound and comparative compound, and a concentration inhibiting the CETP activity by 50% (IC50) was calculated for each exemplary compound and comparative compound from the values of the CETP inhibitory rate at two or more concentrations. As the comparative compounds, the following compounds were used, which are compounds having a benzyl(heterocyclylmethyl)amine structure described in Examples 52, 66 and 79 of Patent document 9 (International Patent Publication WO2006/073973).

[3] = tested on: CETP; assay: CETP inhibitory activity in blood of hamster (repetitive oral administration for 7 days); assay type: in vivo; conditions: 100 mg/kg orally once a day for 7 days, blood collected 2 hours after final administration, n=5, control 43.5 ± 6.4
Procedure: as §1, with “sample. […]” for “sample.”

| Compound | Average CETP activity ± standard deviation (%) [1] [%] | IC50 [2] [µM] | Average CETP activity ± standard deviation (%) [3] [%] | melting point [°C] |
| --- | --- | --- | --- | --- |
| CCN(CC1CCCC1)c1nc(C)c(C)cc1CN(Cc1cc(C(F)(F)F)cc(C(F)(F)F)c1)c1nnn(C)n1 [Comparative Compound 3, reference compound] | 15.0 ± 4.0 | 1.5 | – | – |
| CCN(CC1CCCC1)c1nc2ccccc2cc1CN(Cc1cc(C(F)(F)F)cc(C(F)(F)F)c1)c1ncccn1 [Comparative Compound 2, reference compound] | 30.3 ± 4.2 | 20 | – | – |
| CCN(CC1CCCC1)c1ccc(OC)nc1CN(Cc1cc(C(F)(F)F)cc(C(F)(F)F)c1)c1ncc(OCCS(C)(=O)=O)cn1 [Example 13, 2-[N-[3,5-bis(trifluoromethyl)benzyl]-N-[3-(N-cyclopentylmethyl-N-ethyl)amino-6-methoxypyridin-2-yl]methyl]amino-5-(2-methylsulfonylethoxy)pyrimidine] | 8.5 ± 1.7 | 0.25 | 9.0 ± 1.7 | – |
| CCN(CC1CCCC1)c1ccc(OC)nc1CN(Cc1cc(C(F)(F)F)cc(C(F)(F)F)c1)c1ncc(OCCS(C)(=O)=O)cn1 (as salt: hydrochloride) [Example 13, 2-[N-[3,5-bis(trifluoromethyl)benzyl]-N-[3-(N-cyclopentylmethyl-N-ethyl)amino-6-methoxypyridin-2-yl]methyl]amino-5-(2-methylsulfonylethoxy)pyrimidine] | – | – | – | 67 to 71 |
| CCN(CC1CCCC1)c1ccc(OC)nc1CN(Cc1cc(C#N)cc(C(F)(F)F)c1)c1ncc(OCC[S+](C)[O-])cn1 (stereo not drawn) [Example 9, 2-[N-(3-cyano-5-trifluoromethylbenzyl)-N-[3-(N-cyclopentylmethyl-N-ethyl)amino-6-methoxypyridin-2-yl]methyl]amino-5-(2-methylsulfinylethoxy)pyrimidine] | – | 0.09 | – | – |
| CCN(CC1CCCC1)c1ccc(OC)nc1CN(Cc1cc(C#N)cc(C#N)c1)c1ncc(OCCS(C)(=O)=O)cn1 [Example 42, 2-[N-[3-(N-cyclopentylmethyl-N-ethyl)amino-6-methoxypyridin-2-yl]methyl-N-(3,5-dicyanobenzyl)]amino-5-(2-methylsulfonylethoxy)pyrimidine] | – | 0.25 | – | – |
| CCN(CC1CCCC1)c1ccc(OC)nc1CN(Cc1cc(C(F)(F)F)cc(C(F)(F)F)c1)c1ncc(OCC[S+](C)[O-])cn1 (stereo not drawn) [Example 12, 2-[N-[3,5-bis(trifluoromethyl)benzyl]-N-[3-(N-cyclopentylmethyl-N-ethyl)amino-6-methoxypyridin-2-yl]methyl]amino-5-(2-methylsulfinylethoxy)pyrimidine] | – | 0.35 | – | – |
| CCN(CC1CCCC1)c1nc2ccccc2cc1CN(Cc1cc(C(F)(F)F)cc(C(F)(F)F)c1)c1nnn(C)n1 [Comparative Compound 1, reference compound] | 22.9 ± 3.3 | 1 | – | – |
| CCN(CC1CCCC1)c1ccc(OC)nc1CN(Cc1cc(C#N)cc(C(F)(F)F)c1)c1ncc(OCCS(C)(=O)=O)cn1 [Example 10, 2-[N-(3-cyano-5-trifluoromethylbenzyl)-N-[3-(N-cyclopentylmethyl-N-ethyl)amino-6-methoxypyridin-2-yl]methyl]amino-5-(2-methylsulfonylethoxy)pyrimidine] | 2.6 ± 1.1 | 0.035 | 11.4 ± 6.0 | 97.2 to 98.2 |
| CCN(CC1CCCC1)c1ccc(OC)nc1CN(Cc1cc(C#N)cc(C#N)c1)c1ncc(OCC[S+](C)[O-])cn1 (stereo not drawn) [Example 41, 2-[N-[3-(N-cyclopentylmethyl-N-ethyl)amino-6-methoxypyridin-2-yl]methyl-N-(3,5-dicyanobenzyl)]amino-5-(2-methylsulfinylethoxy)pyrimidine] | – | 0.5 | – | – |
